Data taken from PMC12566511, “The Evaluation of (1R,4R,7R,10R)-α,α′,α″,α‴-Tetramethyl-1,4,7,10-tetraazacyclododecane-1,4,7,10-tetraacetic Acid (DOTMA) as a Chelator for Zirconium-89” (Molecules, 2025).
Like-named read-outs stand apart in the source and are kept apart here.

Assays:
[1] = Solubility of the non-radioactive complex in conventional solvents; format: physicochemical; details: every conventional solvent tested
Source text: As with our previous studies and to assist in our understanding of the chemical reactivity of this ligand with ^89Zr, we attempted to characterize the Zr-DOTMA complex. Unfortunately, the synthesis of Zr-DOTMA was problematic. […] This insolubility prevented any rigorous characterization using standard analytical techniques such as solution NMR, mass spectrometry, or single crystal X-ray diffraction analysis. Thus, to provide some characterization data, we completed solid-state NMR of Zr-DOTMA and compared its spectrum with that of the DOTMA ligand (Figures S1 and S2). Briefly, the C-13 spectrum of the DOTMA ligand is composed of four groups of resonances consistent with CH3, CH2, CH, and COO^−. The spectra are assigned as COO^− near 182 ppm, CH at 58 ppm, CH2 centered near 48 ppm, and four methyl resonances near 9.5 ppm. The CH3 is attached to a chiral carbon atom at a stereogenic center. In contrast to the ligand spectra, the Zr-DOTMA spectrum is comprised of a major crystalline phase, apparently with Z’ = 1 having resonances consistent with CH3, CH2, CH, and COO at 11, 47, 66, and 179 ppm, respectively. It also has minor resonances near 52, 62, and 174 ppm. The resonances near 174 are composed of at least three unique carbons but, based on linewidth, appear to be crystalline in nature. The methyl groups are magnetically inequivalent.

[2] = cited from earlier work
[3] = set-up: method as in PMID 28451334; details: normal mice, cited from earlier work

For `C[C@H](C(=O)[O-])N1CCN([C@H](C)C(=O)[O-])CCN([C@H](C)C(=O)[O-])CCN([C@H](C)C(=O)[O-])CC1.[Zr+4]` [Zr-DOTMA, Zirconium (1R,4R,7R,10R)-α,α′,α″,α‴-Tetramethyl-1,4,7,10-tetraazacyclododecane-1,4,7,10-tetraacetic Acid], the “solubility (in words)” value [1] was “insoluble in every conventional solvent tested”.
For `O=C([O-])CN1CCN(CC(=O)[O-])CCN(CC(=O)[O-])CCN(CC(=O)[O-])CC1.[89Zr+4]` [[^89Zr]Zr-DOTA], the LogP ([2]; value reported) is given as −3.80 ± 0.04.
For `O=C([O-])CN1CCN(CC(=O)[O-])Cc2cccc(n2)CN(CC(=O)[O-])CC1.[89Zr+4]` [[^89Zr]Zr-PCTA], the LogP ([2]; previously reported results) is listed as −3.09 ± 0.03.
In the case of `CC(=O)N([O-])CCCCCNC(=O)CCC(=O)N([O-])CCCCCNC(=O)CCC(=O)N([O-])CCCCCN.[89Zr+4]` [[^89Zr]Zr-DFO], the “bone (72 h p.i., %ID/g ± SD)” value ([3]; bone) is listed as 0.079 ± 0.006 %ID/g, the “kidney (72 h p.i., %ID/g ± SD)” value ([3]; kidney) is listed as 0.69 ± 0.09 %ID/g and the “liver (72 h p.i., %ID/g ± SD)” value ([3]; liver) is listed as 0.066 ± 0.009 %ID/g. For the same compound, the LogP ([2]; previously reported results) was −2.83 ± 0.03.
